Experimental data from patent US4992469A, “Method of obtaining an antiplatelet effect” (Eisai Co., Ltd., priority 1984, dated 1991).
Where two headings read alike, the source gives them in different places.

Columns and labels:
human platelets = assay: Repression of human platelet agglutination in vitro (PRP; PAF, collagen or ADP as inducer); format: cell-based; details: for inhibition at 100 µM: test compound 100 μM; for inhibition at 200 µM: test compound 200 μM; for inhibition at 20 µM: test compound 20 μM; for inhibition at 50 µM: test compound 50 μM
Description: Effects of repressing human platelet agglutination of the compounds of the present invention were examined in vitro. Platelet agglutination test was carried out in the following manner with the use of PAF (platelet activating factor; 1-alkyl-2-acetyl-sn-glycero-3-phosphocholine), collagen and ADP as inducers.
Blood was collected from the venae brachiales of a healthy adult in an amount of nine parts by volume to one part by volume of a 3.8% sodium citrate solution. The blood was centrifuged at 100 ×g for eight min and PRP separated as the supernatant was collected.
To 0.2 ml of the PRP as prepared above, 25 μl portions of test solutions in various concentrations were added and each mixture was incubated at 37° C. for three min. 25 μl of the abovementioned inducer solution was added thereto to induce agglutination. PAF, collagen and ADP were added as inducers to the final concentrations of 100 ng/ml, 1 μg/ml and 5 μM, respectively. Platelet agglutination was determined with an aggregometer (a product of Niko Bioscience Co., Ltd.) by the method of Mustard et al. (cf. Mustard, J.F., Hegaldt, B., Rosewell, H.C., MacMillan, R.C., J. Lab. Clin. Med., 64, 548-559 (1964)). The repressing effect of each test compound was evaluated as the repression ratio with the use of PRP containing vehicle as control.
(3) The following compounds were tested. Compounds A to D are as defined in Experimental Example 1. [drawing 18]
Each figure in Table 2 represents the repression ratio (%) of the corresponding compound.

Phospholipase A2 = Phospholipase A2 inhibition (myristic acid liberated from myristyllecithin, HPLC); format: biochemical
Description: Prior to the determination of the activity of phospholipase A by determining myristic acid liberated from a substrate (myristyllecithin) by said enzyme by high-performance liquid chromatography, the following test compounds were added in amounts as shown in Table 1 to examine the effects thereof.
CoQ10 was employed for the purpose of comparison. [drawing 17]
Each value in Table 1 represents the evaluation of the corresponding compound assuming the value of a physiological saline solution as 100 and indicates the phospholipase A2 inhibition activity thereof.

[1] = inducer ADP 5 μM, read-out: repression ratio of platelet agglutination, ADP
[2] = inducer PAF 100 ng/ml, read-out: repression ratio of platelet agglutination, PAF
[3] = inducer collagen 1 μg/ml, read-out: repression ratio of platelet agglutination, Collagen

Compound: COC1=C(OC)C(=O)C(C/C=C(\C)CC/C=C(\C)CC/C=C(\C)CC/C=C(\C)CC/C=C(\C)CC/C=C(\C)CC/C=C(\C)CC/C=C(\C)CC/C=C(\C)CCC=C(C)C)=C(C)C1=O [CoQ10, Ubidecarenone, reference compound]
- inhibition at 100 µM (human platelets; [1]): 8.7%
- inhibition at 200 µM (human platelets; [1]): 11.3%
- inhibition at 20 µM (human platelets; [2]): 8%
- inhibition at 100 µM (human platelets; [2]): 16.2%
- inhibition at 200 µM (human platelets; [2]): 19%
- inhibition at 20 µM (human platelets; [3]): 6.5%
- inhibition at 100 µM (human platelets; [3]): 18.7%
- Phospholipase A activity (physiological saline = 100) (Phospholipase A2; final concentration 43 μM): 56%

Compound: COC1=C(OC)C(=O)C(C/C=C(\C)CC/C=C(\C)CC/C=C(\C)CC/C=C(\C)C(=O)O)=C(C)C1=O [Compound A]
- inhibition at 20 µM (human platelets; [1]): 12.4%
- inhibition at 50 µM (human platelets; [1]): 2.1%
- inhibition at 100 µM (human platelets; [1]): 22.1%
- inhibition at 200 µM (human platelets; [1]): 23.1%
- inhibition at 20 µM (human platelets; [2]): 27.8%
- inhibition at 50 µM (human platelets; [2]): 36%
- inhibition at 100 µM (human platelets; [2]): 42.6%
- inhibition at 200 µM (human platelets; [2]): 52.9%
- inhibition at 20 µM (human platelets; [3]): 62.4%
- inhibition at 100 µM (human platelets; [3]): 86.6%
- Phospholipase A activity (physiological saline = 100) (Phospholipase A2; final concentration 4 μM): 66%

Compound: COc1c(O)c(C)c(C/C=C(\C)CC/C=C(\C)CC/C=C(\C)CC/C=C(\C)C(=O)O)c(OC)c1OC [Compound B]
- inhibition at 20 µM (human platelets; [1]): 12.9%
- inhibition at 50 µM (human platelets; [1]): 24.8%
- inhibition at 100 µM (human platelets; [1]): 21.5%
- inhibition at 200 µM (human platelets; [1]): 24.2%
- inhibition at 20 µM (human platelets; [2]): 21.6%
- inhibition at 50 µM (human platelets; [2]): 36.8%
- inhibition at 100 µM (human platelets; [2]): 38.4%
- inhibition at 200 µM (human platelets; [2]): 51.6%
- inhibition at 20 µM (human platelets; [3]): 21.4%
- inhibition at 100 µM (human platelets; [3]): 69.6%
- Phospholipase A activity (physiological saline = 100) (Phospholipase A2; final concentration 4 μM): 55%

Compound: COC1=C(OC)C(=O)C(C/C=C(\C)CC/C=C(\C)CC/C=C(\C)C(=O)O)=C(C)C1=O [Compound C]
- inhibition at 200 µM (human platelets; [1]): 18.3%
- inhibition at 20 µM (human platelets; [2]): 3.5%
- inhibition at 50 µM (human platelets; [2]): 3.4%
- inhibition at 100 µM (human platelets; [2]): 12.2%
- inhibition at 200 µM (human platelets; [2]): 47.3%
- inhibition at 20 µM (human platelets; [3]): 3.2%
- inhibition at 100 µM (human platelets; [3]): 17.2%
- Phospholipase A activity (physiological saline = 100) (Phospholipase A2; final concentration 4 μM): 25%

Compound: COc1c(O)c(C)c(C/C=C(\C)CC/C=C(\C)CC/C=C(\C)C(=O)O)c(OC)c1OC [Compound D]
- inhibition at 50 µM (human platelets; [1]): 9%
- inhibition at 100 µM (human platelets; [1]): 13.5%
- inhibition at 200 µM (human platelets; [1]): 21.3%
- inhibition at 20 µM (human platelets; [2]): 4.5%
- inhibition at 50 µM (human platelets; [2]): 23.8%
- inhibition at 100 µM (human platelets; [2]): 26%
- inhibition at 200 µM (human platelets; [2]): 51.5%
- inhibition at 20 µM (human platelets; [3]): 2.8%
- inhibition at 100 µM (human platelets; [3]): 39.3%
- Phospholipase A activity (physiological saline = 100) (Phospholipase A2; final concentration 4 μM): 24%

Compound: COc1c(O)c(C)c(C/C=C(\C)CC/C=C(\C)C(=O)O)c(OC)c1OC [Compound E]
- inhibition at 100 µM (human platelets; [1]): 10.7%
- inhibition at 200 µM (human platelets; [1]): 23%
- inhibition at 20 µM (human platelets; [2]): 3.03%
- inhibition at 50 µM (human platelets; [2]): 28.1%
- inhibition at 100 µM (human platelets; [2]): 32.5%
- inhibition at 200 µM (human platelets; [2]): 45.4%
- inhibition at 20 µM (human platelets; [3]): 45.4%
- inhibition at 100 µM (human platelets; [3]): 75.8%

Compound: COc1c(O)c(C)c(C/C=C(\C)CC/C=C(\C)CC/C=C(\C)CC/C=C(\C)CC/C=C(\C)C(=O)O)c(OC)c1OC [Compound F]
- inhibition at 100 µM (human platelets; [1]): 6.7%
- inhibition at 200 µM (human platelets; [1]): 26.3%
- inhibition at 50 µM (human platelets; [2]): 5.9%
- inhibition at 100 µM (human platelets; [2]): 9.3%
- inhibition at 200 µM (human platelets; [2]): 49%
- inhibition at 20 µM (human platelets; [3]): 5%
- inhibition at 100 µM (human platelets; [3]): 15.8%

Compound: COc1c(O)c(C)c(C/C=C(\C)CC/C=C(\C)CC/C=C(\C)CC/C=C(\C)CC/C=C(\C)CC/C=C(\C)C(=O)O)c(OC)c1OC [Compound G]
- inhibition at 100 µM (human platelets; [1]): 14%
- inhibition at 200 µM (human platelets; [1]): 23.1%
- inhibition at 50 µM (human platelets; [2]): 8.1%
- inhibition at 100 µM (human platelets; [2]): 12.8%
- inhibition at 200 µM (human platelets; [2]): 59.8%
- inhibition at 100 µM (human platelets; [3]): 30.2%

Compound: COC1=C(OC)C(=O)C(C/C=C(\C)CC/C=C(\C)C(=O)O)=C(C)C1=O [Compound H]
- inhibition at 100 µM (human platelets; [1]): 8.8%
- inhibition at 200 µM (human platelets; [1]): 18.2%
- inhibition at 20 µM (human platelets; [2]): 8.8%
- inhibition at 50 µM (human platelets; [2]): 28.2%
- inhibition at 100 µM (human platelets; [2]): 37.8%
- inhibition at 200 µM (human platelets; [2]): 47.3%
- inhibition at 20 µM (human platelets; [3]): 38.1%
- inhibition at 100 µM (human platelets; [3]): 84.3%

Compound: COC1=C(OC)C(=O)C(C/C=C(\C)CC/C=C(\C)CC/C=C(\C)CC/C=C(\C)CC/C=C(\C)C(=O)O)=C(C)C1=O [Compound I]
- inhibition at 100 µM (human platelets; [1]): 3.9%
- inhibition at 200 µM (human platelets; [1]): 22%
- inhibition at 20 µM (human platelets; [2]): 2.8%
- inhibition at 50 µM (human platelets; [2]): 3.9%
- inhibition at 100 µM (human platelets; [2]): 10.8%
- inhibition at 200 µM (human platelets; [2]): 53.3%
- inhibition at 100 µM (human platelets; [3]): 24.1%

Compound: COC1=C(OC)C(=O)C(C/C=C(\C)CC/C=C(\C)CC/C=C(\C)CC/C=C(\C)CC/C=C(\C)CC/C=C(\C)C(=O)O)=C(C)C1=O [Compound J]
- inhibition at 50 µM (human platelets; [1]): 16.5%
- inhibition at 100 µM (human platelets; [1]): 27.1%
- inhibition at 200 µM (human platelets; [1]): 30.1%
- inhibition at 20 µM (human platelets; [2]): 6%
- inhibition at 50 µM (human platelets; [2]): 2.7%
- inhibition at 100 µM (human platelets; [2]): 24.9%
- inhibition at 200 µM (human platelets; [2]): 65.3%
- inhibition at 100 µM (human platelets; [3]): 22%
